This is an account of results in ChEMBL document CHEMBL1157450, “Potent and selective small-molecule human urotensin-II antagonists with improved pharmacokinetic profiles” (Bioorg Med Chem Lett, 2008).

Broadly, the bioavailability is dose-corrected exposure relative to a reference, in per cent. A low value points to little systemic uptake. A word on the half-life: it is the time needed for the level to fall by half in the phase considered. A word on the pEC50: it is −log10 of the EC50, conventionally taken in molar units. A higher pEC50 goes with a low EC50. What is called pKi is the Ki on a negative log10 scale, so that one unit is a factor of ten. Lower therefore signals a high Ki. What is called Cmax is the maximum level reached in the sampled fluid or tissue. The term pIC50 denotes −log10 of the IC50, conventionally taken in molar units. Read a high pIC50 as a low IC50.

Series [1] can be described thus: Oral bioavailability in rat at 4 mg/kg. The format is ADME, organism-based. The settings on record: in vivo.
Series [2] can be described thus: Half life in rat at 2 mg/kg, iv and 4 mg/kg, po. The format is ADME, organism-based. The settings on record: in vivo.
The target of series [3] is Kappa-type opioid receptor (Homo sapiens, UniProt P41145). The experiment in a line: Agonist activity at kappa opioid receptor. In kind it is functional.
The nature of series [4]: (§1) Binding affinity to batrachotoxinin-sensitive rat brain sodium channel.
Series [5] in a line: Cmax in rat at 2 mg/kg, iv and 4 mg/kg, po. The format is ADME, organism-based. The settings on record: in vivo.
Series [6] deals with Cytochrome P450 3A4 (Homo sapiens, UniProt P08684). Put plainly: Inhibition of CYP3A4. In kind it is ADME.
Series [7] addresses T1, Urotensin-2 receptor (Homo sapiens, UniProt Q9UKP6).
T1 sequence (Q9UKP6 whole entry): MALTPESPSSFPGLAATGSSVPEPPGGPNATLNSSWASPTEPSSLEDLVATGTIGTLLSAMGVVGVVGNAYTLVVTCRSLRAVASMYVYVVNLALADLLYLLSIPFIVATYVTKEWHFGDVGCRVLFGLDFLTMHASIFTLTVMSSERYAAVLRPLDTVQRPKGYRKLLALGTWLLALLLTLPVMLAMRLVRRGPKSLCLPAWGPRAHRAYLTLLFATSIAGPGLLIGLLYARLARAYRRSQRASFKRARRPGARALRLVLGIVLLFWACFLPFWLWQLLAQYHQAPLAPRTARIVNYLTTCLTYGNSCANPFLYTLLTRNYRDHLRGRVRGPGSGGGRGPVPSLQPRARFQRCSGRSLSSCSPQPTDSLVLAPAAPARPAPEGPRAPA
Put plainly: Binding affinity to human urotensin-2 receptor.

Series [8] deals with Cytochrome P450 2D6 (Homo sapiens, UniProt P10635). Put plainly: Inhibition of CYP2D6. In kind it is ADME.
A short description of series [9]: Volume of distribution at steady state in rat at 2 mg/kg, iv and 4 mg/kg, po. The settings on record: in vivo, read-out: Vdss. In kind it is ADME, organism-based.
The nature of series [10]: Clearance in rat at 2 mg/kg, iv and 4 mg/kg, po. The format is ADME, organism-based. The settings on record: in vivo.
Series [11] relates to Aorta. The experiment in a line: Inhibition of contraction in isolated rat aorta. In kind it is functional.
Series [12] is filed under the species Rattus norvegicus. The series is described as §1.

pEC50, pIC50, pKi: −log10 of the molar value. Activity calls are given as the source filed them.

Chain of Cytochrome P450 3A4 (P08684 whole entry): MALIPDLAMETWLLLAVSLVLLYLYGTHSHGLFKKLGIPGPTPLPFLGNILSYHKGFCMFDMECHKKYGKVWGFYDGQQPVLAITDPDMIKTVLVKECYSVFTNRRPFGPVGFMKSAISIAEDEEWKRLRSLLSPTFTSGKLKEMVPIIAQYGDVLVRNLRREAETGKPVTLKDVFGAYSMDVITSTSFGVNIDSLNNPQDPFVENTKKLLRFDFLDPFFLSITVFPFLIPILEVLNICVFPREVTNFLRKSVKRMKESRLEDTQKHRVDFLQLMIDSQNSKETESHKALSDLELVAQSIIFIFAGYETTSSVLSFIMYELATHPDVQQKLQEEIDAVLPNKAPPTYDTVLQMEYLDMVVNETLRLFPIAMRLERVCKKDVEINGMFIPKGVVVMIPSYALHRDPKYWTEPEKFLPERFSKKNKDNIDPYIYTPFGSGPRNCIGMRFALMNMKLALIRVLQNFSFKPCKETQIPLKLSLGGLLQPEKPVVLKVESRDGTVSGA
Chain of Cytochrome P450 2D6 (P10635 whole entry): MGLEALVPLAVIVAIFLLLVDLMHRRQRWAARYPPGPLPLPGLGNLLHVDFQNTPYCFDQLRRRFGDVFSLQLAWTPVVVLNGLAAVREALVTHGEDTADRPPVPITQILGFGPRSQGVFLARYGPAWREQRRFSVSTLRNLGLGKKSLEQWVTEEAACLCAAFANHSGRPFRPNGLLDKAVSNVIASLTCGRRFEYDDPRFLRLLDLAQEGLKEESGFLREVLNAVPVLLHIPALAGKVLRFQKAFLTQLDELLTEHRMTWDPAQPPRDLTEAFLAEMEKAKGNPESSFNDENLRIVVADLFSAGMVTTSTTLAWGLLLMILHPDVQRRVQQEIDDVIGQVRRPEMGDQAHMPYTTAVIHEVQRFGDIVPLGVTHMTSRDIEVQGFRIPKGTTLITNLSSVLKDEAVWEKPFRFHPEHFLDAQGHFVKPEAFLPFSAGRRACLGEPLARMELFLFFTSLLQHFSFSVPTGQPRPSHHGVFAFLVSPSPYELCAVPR
Chain of Kappa-type opioid receptor (P41145 whole entry): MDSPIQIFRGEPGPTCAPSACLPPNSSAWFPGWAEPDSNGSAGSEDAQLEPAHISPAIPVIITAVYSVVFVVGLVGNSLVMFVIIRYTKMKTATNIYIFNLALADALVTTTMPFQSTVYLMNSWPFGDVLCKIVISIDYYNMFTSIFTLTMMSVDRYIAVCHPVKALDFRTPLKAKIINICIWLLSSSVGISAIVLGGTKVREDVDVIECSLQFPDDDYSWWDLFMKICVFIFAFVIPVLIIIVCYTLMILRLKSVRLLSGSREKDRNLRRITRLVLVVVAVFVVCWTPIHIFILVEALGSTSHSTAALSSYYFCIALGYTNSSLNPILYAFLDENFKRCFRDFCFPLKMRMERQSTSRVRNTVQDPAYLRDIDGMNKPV

On to `CN(C(=O)CN(CC#N)c1ccc(Cl)c(Cl)c1)C(CN1CCCC1)c1ccc(-c2cccc(C(N)=O)c2)cc1` (centres undefined), for which the bioavailability in [1] is 36%. In series [2], this molecule gave a half-life of 3.4 h. This molecule showed a negative logarithm of the EC50 (pEC50) in [3] of 7.49. Moreover, the pKi was 4.66 in series [4] and 9.52 in series [7]. The same molecule returned a Cmax in series [5] of 340 ng/mL. Also, the results for the pIC50 in series [6] and in series [8] were 5.66 and 5.46, respectively. Besides, the Vd in series [9] worked out at 20 L/kg. The clearance in series [10] was 100 mL/min/kg.
For `CN(CC(=O)N(C)C(CN1CCOCC1)c1ccc(-c2ccccc2)cc1)c1ccc(Cl)c(Cl)c1` (centres undefined), the negative-log EC50 (pEC50) in series [3] is 5.80. For the same molecule, the values for the negative logarithm of the Ki (pKi) in series [4] and in [7] were less than 3.52 and 6.20, respectively. The pIC50 was 5.68 in series [6] and 4.80 in series [8].
`COc1cccc(-c2ccc(C(CN3CCOCC3)N(C)C(=O)CN3C(=O)COc4cc(Cl)c(Cl)cc43)cc2)c1` (centres undefined) yielded a bioavailability in series [1] of 30%. The half-life in series [2] was 3.4 h. This molecule had a pEC50 in [3] of 6.80. In addition, the negative logarithm of the Ki (pKi) in [4] was 4.66; in series [7] it was 8.30. In series [11], this molecule showed a Kb of 21 nM. For the same molecule, the concentration in series [5] peaked (Cmax) at 290 ng/mL. Also, the figures for the negative-log IC50 (pIC50) in series [6] and in series [8] were 6.00 and 4.77, respectively. The Vd in series [9] was 20 L/kg. In addition, the clearance in [10] was found to be 140 mL/min/kg.
On to `CN(CC(=O)N(C)C(CN1CCCC1)c1ccc(-c2ccccc2)cc1)c1ccc(Cl)c(Cl)c1` (centres undefined), for which the pEC50 in series [3] is 7.80. In addition, the negative-log Ki (pKi) is 5.92 in series [4] and 7.70 in series [7]. Moreover, the results for the negative-log IC50 (pIC50) in series [6] and in [8] were 5.31 and 5.23, respectively.
Regarding `CN(CC(=O)N(C)[C@H](CN1CCCC1)c1ccccc1)c1ccc(Cl)c(Cl)c1`, the pEC50 in series [3] is 10.00. The molecule further had a negative-log Ki (pKi) in series [7] of 5.60.
`CN(CC(=O)N1CCCC(c2ccccc2)C1CN1CCCC1)c1ccc(Cl)c(Cl)c1` (racemic) gave a negative-log Ki (pKi) in series [4] of 5.60.
The molecule `CNC(=O)c1cccc(-c2ccc(C(CN3CCOCC3)N(C)C(=O)Cn3c(=O)cnc4cc(Cl)c(Cl)cc43)cc2)c1` (centres undefined) yielded a bioavailability in series [1] of 29%. Further, the half-life in series [2] was 1.5 h. The pEC50 in series [3] is 5.70. Besides, the pKi in series [4] is 4.52; in [7], 8.40. Moreover, the peak level in series [5] (Cmax) was 1100 ng/mL. The pIC50 in [6] is 5.30; in [8], 4.48. In [9], the Vd was determined as 2 L/kg. Moreover, in [10], the clearance was found to be 36 mL/min/kg.
For the molecule `CN(C(=O)Cc1ccc(Cl)c(Cl)c1)[C@H](CN1CCCC1)c1ccccc1` [ICI-199,441], in series [7], the pKi was 5.40.
On to `CC(=O)Nc1ccc(-c2ccc(C(CN3CCOCC3)N(C)C(=O)CN3C(=O)COc4cc(C)c(C)cc43)cc2)cc1` (centres undefined), for which the bioavailability in series [1] is 83%. Moreover, the half-life in series [2] was 1.7 h. In [3], this molecule gave a pEC50 of 6.10. Moreover, the pKi was 4.52 in series [4] and 8.52 in [7]. This molecule showed a maximum concentration (Cmax) in [5] of 600 ng/mL. Moreover, the pIC50 in [6] is 5.19; in [8], 4.52. In addition, the Vd in [9] came to 2.8 L/kg. The clearance in series [10] was 94 mL/min/kg.
In [3], `CN(CC(=O)N(C)[C@@H](CN1CCCC1)c1ccccc1)c1ccc(Cl)c(Cl)c1` gave a negative logarithm of the EC50 (pEC50) of 8.40. The pKi in series [4] is 5.70; in series [7], 7.89.
`CN(CC(=O)N1CCC[C@H](c2ccccc2)[C@@H]1CN1CCCC1)c1ccc(Cl)c(Cl)c1`: in [3], the negative-log EC50 (pEC50) was 5.20. The negative logarithm of the Ki (pKi) in [7] is 8.22.
In series [3], `CN(CC(=O)N(C)C(CN1CCCC1)c1ccccc1)c1ccc(Cl)c(Cl)c1` (racemic) had a negative-log EC50 (pEC50) of 9.70. Besides, in [12], the result was inactive. In addition, the pIC50 in series [6] was 5.48; in series [8], 6.80. In addition, the pKi in series [7] was 7.82.
Take `CN(C(=O)CN1C(=O)COc2cc(Cl)c(Cl)cc21)C(CN1CCOCC1)c1ccc(-c2ccccc2)cc1` (racemic): the half-life in [2] is 2.4 h. In [3], this molecule gave a pEC50 of 6.49. The figures for the negative-log Ki (pKi) in series [4] and in series [7] were 4.95 and 7.89, respectively. The molecule further gave a Cmax in series [5] of 160 ng/mL. Moreover, the pIC50 in series [6] was 5.34; in series [8], 4.48. Further, the Vd in series [9] amounted to 23 L/kg. In addition, the clearance in series [10] was determined as 150 mL/min/kg.
Regarding `CN(CC(=O)N1CCC[C@@H](c2ccccc2)[C@H]1CN1CCCC1)c1ccc(Cl)c(Cl)c1`, the negative logarithm of the EC50 (pEC50) in [3] is 5.70.
As to `CNC(=O)c1cccc(-c2ccc(C(CN3CCOCC3)N(C)C(=O)Cn3c(=O)cnc4cc(C)c(C)cc43)cc2)c1` (centres undefined), in series [1], the bioavailability worked out at 39%. In [2], this molecule showed a half-life of 1 h. In series [3], the pEC50 was 5.40. Further, the pKi in series [4] is 4.52; in series [7], 8.22. In addition, the negative logarithm of the IC50 (pIC50) in series [6] is 5.05; in [8], 4.48. Also, the Vd in series [9] was 1.7 L/kg. Moreover, in [10], the clearance turned out to be 60 mL/min/kg.
Consider `COCCN(CC(=O)N(C)C(CN1CCCC1)c1ccc(-c2ccc(C(N)=O)cc2)cc1)c1ccc(Cl)c(Cl)c1` (centres undefined), for which the pEC50 in [3] is 7.00. The figures for the pKi in series [4] and in series [7] were 4.77 and 8.52, respectively. In addition, the negative-log IC50 (pIC50) in series [6] was 5.59; in [8], 5.21.
On to `CN(C(=O)CN1C(=O)COc2cc(Cl)c(Cl)cc21)[C@@H](CN1CCOCC1)c1ccc(-c2ccccc2)cc1`, for which, in series [1], the bioavailability came out at 43%. The same molecule had a half-life in series [2] of 2.2 h. The negative-log EC50 (pEC50) in series [3] was 6.10. Besides, the negative logarithm of the Ki (pKi) in series [4] was 5.11; in series [7] it was 7.80. The maximum concentration (Cmax) in [5] was 200 ng/mL. The negative-log IC50 (pIC50) in series [6] is 5.04; in series [8] it was 4.48. For the same molecule, the Vd in series [9] stood at 11 L/kg. In addition, the clearance in [10] amounted to 120 mL/min/kg.
With `CN(C(=O)CN1C(=O)COc2cc(Cl)c(Cl)cc21)[C@H](CN1CCOCC1)c1ccc(-c2ccccc2)cc1`, the bioavailability in series [1] was found to be 17%. This molecule also showed a half-life in series [2] of 2.6 h. Also, the negative-log EC50 (pEC50) in [3] was 7.40. Besides, the pKi in series [4] is 5.03; in series [7] it was 6.20. In series [5], the peak level (Cmax) was 230 ng/mL. The values for the negative-log IC50 (pIC50) in [6] and in series [8] were 5.38 and 4.48, respectively. The Vd in series [9] turned out to be 19 L/kg. The clearance in series [10] was 130 mL/min/kg.
